Measured values as given in patent US20250108038A1 (priority 2023, published 2025).
“And” between values parts separate entries of the source, which are not always exact repeats. Equal entries are not always repeated.

Assay: Pharmacokinetics after single oral administration to beagle dogs;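 on AUC0-inf of Compound A (as titled): compound A is measured in plasma as a metabolite of the dosed analog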;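 on AUC0-last of Compound A (as titled): compound A is measured in plasma as a metabolite of the dosed analog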;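 on Tlast of Compound A (as titled): compound A is measured in plasma as a metabolite of the dosed analog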;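 on Tmax of Compound A (as titled): compound A is measured in plasma as a metabolite of the dosed analog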
Format: in vivo
Details: for Cmax of the analog (Compound I-17/I-19) / T1/2 of the analog (Compound I-17/I-19) / Tmax of the analog (Compound I-17/I-19): oral 10 mg/kg; for plasma concentration of Compound I-17/I-19 (as titled): single PO 80 mg/kg (as titled)
Procedure: The concentrations of the analytes in the plasma were quantified by liquid chromatography tandem mass spectrometry (LC-MS/MS).
The bioanalytical assay provided a lower limit of quantification (LLOQ) of 1.0 ng/mL and an upper limit of quantification (ULOQ) of 3000 ng/mL for all the analytes. The data of plasma concentration vs. time were analyzed using Phoenix WinNonlin 8.3 to determine the PK properties of the analytes.
The test articles were administered orally by gavage. The nominal dose volume was 5 mL/kg for both analogs.
The observation included appearance, behavior, morbidity and mortality.
Approximately 0.5 mL blood was collected at each scheduled time point from the peripheral veins.
The plasma samples were placed in microcentrifuge tubes and stored at −70+10° C. until analysis.

[1] = after single PO 10 mg/kg of Compound I-17/I-19, female individual
[2] = after single PO 10 mg/kg of Compound I-17/I-19, female individual, 10 mg/kg
[3] = after single PO 10 mg/kg of Compound I-17/I-19, female mean
[4] = after single PO 10 mg/kg of Compound I-17/I-19, male individual
[5] = after single PO 10 mg/kg of Compound I-17/I-19, male individual, 10 mg/kg
[6] = after single PO 10 mg/kg of Compound I-17/I-19, male mean
[7] = after single PO 80 mg/kg (so in the source) of Compound I-17/I-19, female individual, 80 mg/kg
[8] = after single PO 80 mg/kg (so in the source) of Compound I-17/I-19, female mean
[9] = after single PO 80 mg/kg (so in the source) of Compound I-17/I-19, male individual
[10] = after single PO 80 mg/kg (so in the source) of Compound I-17/I-19, male individual, 80 mg/kg
[11] = after single PO 80 mg/kg (so in the source) of Compound I-17/I-19, male mean

## Clc1ccc(C2(OCC3OCCO3)c3ccccc3C3=NCCN32)cc1 (stereo not shown) [Compound I-19]
[1]
  Tlast of Compound A (as titled): 8.00 h
  Tmax of Compound A (as titled): 1.00 h
[2]
  AUC0-inf of Compound A (as titled): 786 ng·h/mL and 1047 ng·h/mL
  AUC0-last of Compound A (as titled): 739 ng·h/mL and 932 ng·h/mL
  Cmax of Compound A (as titled): 258 ng/mL and 262 ng/mL
  MRT0-inf of Compound A (as titled): 2.82 h and 3.68 h
  MRT0-last of Compound A (as titled): 2.29 h and 2.65 h
  T1/2 of Compound A (as titled): 2.23 h and 2.77 h
[3]
  AUC0-inf of Compound A (as titled): 916 ng·h/mL
  AUC0-last of Compound A (as titled): 836 ng·h/mL
  Cmax of Compound A (as titled): 260 ng/mL
  MRT0-inf of Compound A (as titled): 3.25 h
  MRT0-last of Compound A (as titled): 2.47 h
  T1/2 of Compound A (as titled): 2.50 h
  Tlast of Compound A (as titled): 8.00 h
  Tmax of Compound A (as titled): 1.00 h
[4]
  Tlast of Compound A (as titled): 8.00 h
  Tmax of Compound A (as titled): 1.00 h
[5]
  AUC0-inf of Compound A (as titled): 843 ng·h/mL and 756 ng·h/mL
  AUC0-last of Compound A (as titled): 801 ng·h/mL and 737 ng·h/mL
  Cmax of Compound A (as titled): 312 ng/mL and 281 ng/mL
  MRT0-inf of Compound A (as titled): 2.72 h and 2.50 h
  MRT0-last of Compound A (as titled): 2.29 h and 2.31 h
  T1/2 of Compound A (as titled): 1.93 h and 1.39 h
[6]
  AUC0-inf of Compound A (as titled): 799 ng·h/mL
  AUC0-last of Compound A (as titled): 769 ng·h/mL
  Cmax of Compound A (as titled): 297 ng/mL
  MRT0-inf of Compound A (as titled): 2.61 h
  MRT0-last of Compound A (as titled): 2.30 h
  T1/2 of Compound A (as titled): 1.66 h
  Tlast of Compound A (as titled): 8.00 h
  Tmax of Compound A (as titled): 1.00 h
After single PO 80 mg/kg (so in the source) of Compound I-17/I-19, female individual
  Tlast of Compound A: 24.0 h
[7]
  AUC0-inf of Compound A: 982 ng·h/mL and 1387 ng·h/mL
  AUC0-last of Compound A: 919 ng·h/mL and 1108 ng·h/mL
  Cmax of Compound A: 160 ng/mL and 113 ng/mL
  MRT0-inf of Compound A: 7.98 h and 14.9 h
  MRT0-last of Compound A: 6.23 h and 8.76 h
  T1/2 of Compound A: 6.54 h and 10.7 h
  Tmax of Compound A: 0.500 h and 2.00 h
[8]
  AUC0-inf of Compound A: 1185 ng·h/mL
  AUC0-last of Compound A: 1013 ng·h/mL
  Cmax of Compound A: 137 ng/mL
  MRT0-inf of Compound A: 11.5 h
  MRT0-last of Compound A: 7.49 h
  T1/2 of Compound A: 8.61 h
  Tlast of Compound A: 24.0 h
  Tmax of Compound A: 1.25 h
[9]
  Tlast of Compound A: 24.0 h
  Tmax of Compound A: 1.00 h
[10]
  AUC0-inf of Compound A: 1022 ng·h/mL and 661 ng·h/mL
  AUC0-last of Compound A: 958 ng·h/mL and 622 ng·h/mL
  Cmax of Compound A: 136 ng/mL and 111 ng/mL
  MRT0-inf of Compound A: 8.63 h and 7.66 h
  MRT0-last of Compound A: 7.01 h and 6.08 h
  T1/2 of Compound A: 6.05 h and 6.28 h
[11]
  AUC0-inf of Compound A: 841 ng·h/mL
  AUC0-last of Compound A: 790 ng·h/mL
  Cmax of Compound A: 123 ng/mL
  MRT0-inf of Compound A: 8.14 h
  MRT0-last of Compound A: 6.54 h
  T1/2 of Compound A: 6.16 h
  Tlast of Compound A: 24.0 h
  Tmax of Compound A: 1.00 h
Male and female dogs, PO
  Cmax and AUC0-last of Compound A, compared to Compound I-17: about 2.5 ×
Female dogs
  Cmax of the analog (Compound I-17/I-19): 260 ng/mL
  T1/2 of the analog (Compound I-17/I-19): 2.50 hours
  Tmax of the analog (Compound I-17/I-19): 1 hour
Male dogs
  Cmax of the analog (Compound I-17/I-19): 297 ng/mL
  T1/2 of the analog (Compound I-17/I-19): 1.66 hours
  Tmax of the analog (Compound I-17/I-19): 1 hour
Single PO 10 mg/kg, 0.500 h, female individual, 10 mg/kg
  plasma concentration of Compound I-17/I-19: 257 ng/mL and 246 ng/mL
Single PO 10 mg/kg, 0.500 h, female mean
  plasma concentration of Compound I-17/I-19: 252 ng/mL
Single PO 10 mg/kg, 0.500 h, male individual, 10 mg/kg
  plasma concentration of Compound I-17/I-19: 259 ng/mL and 195 ng/mL
Single PO 10 mg/kg, 0.500 h, male mean
  plasma concentration of Compound I-17/I-19: 227 ng/mL
Single PO 10 mg/kg, 1.00 h, female individual, 10 mg/kg
  plasma concentration of Compound I-17/I-19: 258 ng/mL and 262 ng/mL
Single PO 10 mg/kg, 1.00 h, female mean
  plasma concentration of Compound I-17/I-19: 260 ng/mL
Single PO 10 mg/kg, 1.00 h, male individual, 10 mg/kg
  plasma concentration of Compound I-17/I-19: 312 ng/mL and 281 ng/mL
Single PO 10 mg/kg, 1.00 h, male mean
  plasma concentration of Compound I-17/I-19: 297 ng/mL
Single PO 10 mg/kg, 2.00 h, female individual, 10 mg/kg
  plasma concentration of Compound I-17/I-19: 186 ng/mL and 240 ng/mL
Single PO 10 mg/kg, 2.00 h, female mean
  plasma concentration of Compound I-17/I-19: 213 ng/mL
Single PO 10 mg/kg, 2.00 h, male individual
  plasma concentration of Compound I-17/I-19: 181 ng/mL
Single PO 10 mg/kg, 2.00 h, male mean
  plasma concentration of Compound I-17/I-19: 181 ng/mL
Single PO 10 mg/kg, 4.00 h, female individual, 10 mg/kg
  plasma concentration of Compound I-17/I-19: 50.7 ng/mL and 78.2 ng/mL
Single PO 10 mg/kg, 4.00 h, female mean
  plasma concentration of Compound I-17/I-19: 64.4 ng/mL
Single PO 10 mg/kg, 4.00 h, male individual, 10 mg/kg
  plasma concentration of Compound I-17/I-19: 64.2 ng/mL and 67.7 ng/mL
Single PO 10 mg/kg, 4.00 h, male mean
  plasma concentration of Compound I-17/I-19: 66.0 ng/mL
Single PO 10 mg/kg, 6.00 h, female individual, 10 mg/kg
  plasma concentration of Compound I-17/I-19: 27.8 ng/mL and 50.5 ng/mL
Single PO 10 mg/kg, 6.00 h, female mean
  plasma concentration of Compound I-17/I-19: 39.1 ng/mL
Single PO 10 mg/kg, 6.00 h, male individual, 10 mg/kg
  plasma concentration of Compound I-17/I-19: 27.3 ng/mL and 22.7 ng/mL
Single PO 10 mg/kg, 6.00 h, male mean
  plasma concentration of Compound I-17/I-19: 25.0 ng/mL
Single PO 10 mg/kg, 8.00 h, female individual, 10 mg/kg
  plasma concentration of Compound I-17/I-19: 14.6 ng/mL and 28.7 ng/mL
Single PO 10 mg/kg, 8.00 h, female mean
  plasma concentration of Compound I-17/I-19: 21.7 ng/mL
Single PO 10 mg/kg, 8.00 h, male individual, 10 mg/kg
  plasma concentration of Compound I-17/I-19: 15.2 ng/mL and 9.16 ng/mL
Single PO 10 mg/kg, 8.00 h, male mean
  plasma concentration of Compound I-17/I-19: 12.2 ng/mL
Single PO 10 mg/kg, 24.0 h, female individual
  plasma concentration of Compound I-17/I-19: BQL
Single PO 10 mg/kg, 24.0 h, male individual
  plasma concentration of Compound I-17/I-19: BQL
Single PO 10 mg/kg, beagle dogs
  Clinical observation: diarrhea at 24 hours post-dose
0.500 h, female individual, 80 mg/kg
  plasma concentration of Compound I-17/I-19 (as titled): 160 ng/mL and 83.0 ng/mL
0.500 h, female mean
  plasma concentration of Compound I-17/I-19 (as titled): 121 ng/mL
0.500 h, male individual, 80 mg/kg
  plasma concentration of Compound I-17/I-19 (as titled): 102 ng/mL and 91.6 ng/mL
0.500 h, male mean
  plasma concentration of Compound I-17/I-19 (as titled): 96.8 ng/mL
2.00 h, female individual
  plasma concentration of Compound I-17/I-19 (as titled): 113 ng/mL
2.00 h, female mean
  plasma concentration of Compound I-17/I-19 (as titled): 113 ng/mL
2.00 h, male individual, 80 mg/kg
  plasma concentration of Compound I-17/I-19 (as titled): 94.9 ng/mL and 78.9 ng/mL
2.00 h, male mean
  plasma concentration of Compound I-17/I-19 (as titled): 86.9 ng/mL
4.00 h, female individual, 80 mg/kg
  plasma concentration of Compound I-17/I-19 (as titled): 87.3 ng/mL and 76.1 ng/mL
4.00 h, female mean
  plasma concentration of Compound I-17/I-19 (as titled): 81.7 ng/mL
4.00 h, male individual, 80 mg/kg
  plasma concentration of Compound I-17/I-19 (as titled): 87.4 ng/mL and 60.3 ng/mL
4.00 h, male mean
  plasma concentration of Compound I-17/I-19 (as titled): 73.8 ng/mL
6.00 h, female individual, 80 mg/kg
  plasma concentration of Compound I-17/I-19 (as titled): 49.1 ng/mL and 57.9 ng/mL
6.00 h, female mean
  plasma concentration of Compound I-17/I-19 (as titled): 53.5 ng/mL
6.00 h, male individual, 80 mg/kg
  plasma concentration of Compound I-17/I-19 (as titled): 60.4 ng/mL and 35.4 ng/mL
6.00 h, male mean
  plasma concentration of Compound I-17/I-19 (as titled): 47.9 ng/mL
8.00 h, female individual, 80 mg/kg
  plasma concentration of Compound I-17/I-19 (as titled): 32.5 ng/mL and 52.0 ng/mL
8.00 h, female mean
  plasma concentration of Compound I-17/I-19 (as titled): 42.3 ng/mL
8.00 h, male individual, 80 mg/kg
  plasma concentration of Compound I-17/I-19 (as titled): 43.8 ng/mL and 20.9 ng/mL
8.00 h, male mean
  plasma concentration of Compound I-17/I-19 (as titled): 32.4 ng/mL
24.0 h, female individual, 80 mg/kg
  plasma concentration of Compound I-17/I-19 (as titled): 6.70 ng/mL and 18.2 ng/mL
24.0 h, female mean
  plasma concentration of Compound I-17/I-19 (as titled): 12.4 ng/mL
24.0 h, male individual, 80 mg/kg
  plasma concentration of Compound I-17/I-19 (as titled): 7.39 ng/mL and 4.28 ng/mL
24.0 h, male mean
  plasma concentration of Compound I-17/I-19 (as titled): 5.83 ng/mL
[…] h, female mean
  plasma concentration of Compound I-17/I-19 (as titled): 116 ng/mL
[…] h, male mean
  plasma concentration of Compound I-17/I-19 (as titled): 123 ng/mL
